Consider 27 compounds from patent publication US20060135773A1, “Trisubstituted nitrogen modulators of tyrosine phosphatases” (priority 2004, published 2006).

The experiment has as its target T1, PTP-1B (Homo sapiens, UniProt P18031).
T1 construct: PTP-1B (purified, 1 mg/mL) as a 1:250 dilution
T1 sequence (P18031 1-321 limits assumed): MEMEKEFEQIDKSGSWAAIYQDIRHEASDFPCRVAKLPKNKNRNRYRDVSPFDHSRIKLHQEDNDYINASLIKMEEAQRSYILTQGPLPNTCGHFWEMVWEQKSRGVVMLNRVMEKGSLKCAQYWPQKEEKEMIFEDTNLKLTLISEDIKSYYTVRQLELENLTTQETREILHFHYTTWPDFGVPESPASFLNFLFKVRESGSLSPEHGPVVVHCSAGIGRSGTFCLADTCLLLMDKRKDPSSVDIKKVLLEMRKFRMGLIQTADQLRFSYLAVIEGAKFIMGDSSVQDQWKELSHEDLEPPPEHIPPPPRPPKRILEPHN
Kind of experiment: pNPP tyrosine phosphatase inhibition assay, PTP-1B. Format: biochemical. The settings on record: pNPP assay, PTP-1B; read-out: Activity Class (IC50 ranges). In a few lines:
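Test compounds were screened at two final levels, 31.3 and 10 µM, against 4 µg/mL purified PTP-1B. The substrate was 10 mM p-nitrophenyl phosphate, with incubation for 10 min at 30°C before a K2CO3 quench. Activity was taken from A405.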
For the compound `O=P(O)(O)C(F)(F)c1ccc(CN(Cc2ccc(C(F)(F)P(=O)(O)O)c(Br)c2)S(=O)(=O)c2ccccc2)cc1` [Compound 38, {[4-({Benzenesulfonyl-[4-(difluoro-phosphono-methyl)-benzyl]-amino}-methyl)-2-bromo-phenyl]-difluoro-methyl}-phosphonic acid], the IC50 is less than 99 nM.

Take “3-{2-Bromo-4-[N-(4-cyanobenzyl)-N-(2-methoxy-benzenesulfonyl)aminomethyl]-phenoxy}-acetic acid [Compound 121]”: the IC50 was more than 25000 nM.

Consider `O=P(O)(O)C(F)(F)c1ccc(CN(Cc2ccc(Cl)c(Cl)c2)S(=O)(=O)c2ccccn2)cc1Br` [Compound 100, [(2-Bromo-4-{[(3,4-dichloro-benzyl)-(pyridine-2-sulfonyl)-amino]-methyl}-phenyl)-difluoro-methyl]-phosphonic acid], for which the IC50 was in the range of 250 to 499 nM.

For the compound `CC(=O)N(Cc1ccc(C(F)(F)P(=O)(O)O)cc1)Cc1ccc(C(F)(F)P(=O)(O)O)cc1` [Compound 59, {[4-({Acetyl-[4-(difluoro-phosphono-methyl)-benzyl]-amino}-methyl)-phenyl]-difluoro-methyl}-phosphonic acid], the IC50 was more than 25000 nM.

As for `COc1ccccc1S(=O)(=O)N(Cc1ccc(Cl)c(Cl)c1)Cc1ccc(C(F)(F)P(=O)(O)O)c(Br)c1` [Compound 101, [(2-Bromo-4-{[(3,4-dichloro-benzyl)-(2-methoxy-benzenesulfonyl)-amino]-methyl}-phenyl)-difluoro-methyl]-phosphonic acid], the IC50 was 100 to 249 nM.

With `N#Cc1ccc(CN(Cc2ccc(C(F)(F)P(=O)(O)O)c(Br)c2)S(=O)(=O)c2ccccc2Cl)cc1` [Compound 103, [(2-Bromo-4-{[(4-cyano-benzyl)-(2-chlorobenzenesulfonyl)-amino]-methyl}-phenyl)-difluoro-methyl]-phosphonic acid], the IC50 was in the range of 100 to 249 nM.

Consider `COc1ccccc1S(=O)(=O)N(Cc1ccc(C(F)(F)P(=O)(O)O)c(Cl)c1)Cc1ccccc1-c1cccc(O)c1` [Compound 184, [(2-Chloro-4-{[(3′-hydroxy-biphenyl-2-ylmethyl)-(2-methoxy-benzenesulfonyl)-amino]-methyl}-phenyl)-difluoro-methyl]-phosphonic acid], for which the IC50 was 100 to 249 nM.

For `COc1ccccc1S(=O)(=O)N(Cc1ccc(-c2cccc(-c3nn[nH]n3)c2)cc1)Cc1ccc(C(F)(F)P(=O)(O)O)c(Cl)c1` [Compound 47, {[2-Chloro-4-({(2-methoxy-benzenesulfonyl)-[3′-(2H-tetrazol-5-yl)-biphenyl-4-ylmethyl]-amino}-methyl)-phenyl]-difluoro-methyl}-phosphonic acid], the IC50 was less than 99 nM.

With `COc1ccccc1S(=O)(=O)N(Cc1ccc(-c2ccc(-c3nn[nH]n3)cc2)cc1)Cc1ccc(C(F)(F)P(=O)(O)O)c(Cl)c1` [Compound 159, {[2-Chloro-4-({(2-methoxy-benzenesulfonyl)-[4′-(2H-tetrazol-5-yl)-biphenyl-4-ylmethyl]-amino}-methyl)-phenyl]-difluoro-methyl}-phosphonic acid], the IC50 was less than 99 nM.

Consider `COc1ccccc1S(=O)(=O)N(Cc1ccc(-c2cccc(C#N)c2)cc1)Cc1ccc(C(F)(F)P(=O)(OCOC(=O)C(C)(C)C)OCOC(=O)C(C)(C)C)c(Cl)c1` [Compound 226, 2,2-Dimethyl-propionic acid [(2-chloro-4-{[(3′-cyano-biphenyl-4-ylmethyl)-(2-methoxy-benzenesulfonyl)-amino]-methyl}-phenyl)-difluoro-methyl]-(2,2-dimethyl-propionyloxymethoxy)-phosphinoyloxymethyl ester], for which the IC50 was more than 25000 nM.

In the case of `O=[N+]([O-])c1ccc(CN(Cc2ccc(Cl)c(Cl)c2)S(=O)(=O)c2ccccc2Cl)cc1` [Compound 81, 2-Chloro-N-(3,4-dichloro-benzyl)-N-(4-nitro-benzyl)-benzenesulfonamide], the IC50 was more than 25000 nM.

Take `COC(=O)c1ccc(-c2ccc(CN(Cc3ccc(C(F)(F)P(=O)(O)O)c(Cl)c3)S(=O)(=O)c3ccccc3OC)cc2)cc1F` [Compound 174, 4′-{[[3-Chloro-4-(difluoro-phosphono-methyl)-benzyl]-(2-methoxy-benzenesulfonyl)-amino]-methyl}-3-fluoro-biphenyl-4-carboxylic acid methyl ester]: the IC50 lay within 100 to 249 nM.

As for `COc1ccccc1S(=O)(=O)N(Cc1ccc(S(C)(=O)=O)cc1)Cc1ccc(C(F)(F)P(=O)(O)O)c(Br)c1` [Compound 108, [(2-Bromo-4-{[(4-methanesulfonyl-benzyl)-(2-methoxy-benzenesulfonyl)-amino]-methyl}-phenyl)-difluoro-methyl]-phosphonic acid], the IC50 was 250 to 499 nM.

For `COc1ccccc1S(=O)(=O)N(Cc1ccc(-c2nnn[nH]2)cc1)Cc1ccc(S(C)(=O)=O)cc1` [Compound 115, N-(4-Methanesulfonyl-benzyl)-2-methoxy-N-[4-(1H-tetrazol-5-yl)-benzyl]-benzenesulfonamide], the IC50 is more than 25000 nM.

On to `O=C(O)c1ccc(CN(Cc2ccc(C(F)(F)P(=O)(O)O)c(Cl)c2)S(=O)(=O)c2ccccc2)cc1` [Compound 235, 4-({Benzenesulfonyl-[3-chloro-4-(difluoro-phosphono-methyl)-benzyl]-amino}-methyl)-benzoic acid], for which the IC50 lay in the range of 250 to 499 nM.

`O=P(O)(O)C(F)(F)c1ccc(CN(Cc2ccc(Cl)c(Cl)c2)S(=O)(=O)c2ccccc2Cl)cc1Br` [Compound 82]: the IC50 fell in the range of 100 to 249 nM.

For `COc1cccc(-c2ccccc2CN(Cc2ccc(C(F)(F)P(=O)(O)O)c(Cl)c2)S(=O)(=O)c2ccccc2OC)c1` [Compound 183, [(2-Chloro-4-{[(2-methoxy-benzenesulfonyl)-(3′-methoxy-biphenyl-2-ylmethyl)-amino]-methyl}-phenyl)-difluoro-methyl]-phosphonic acid], the IC50 was less than 99 nM.

For the compound `NC(=O)c1ccccc1S(=O)(=O)N(Cc1ccccc1)Cc1ccc(C(F)(F)P(=O)(O)O)c(Cl)c1` [Compound 192, [(4-{[Benzyl-(2-carbamoyl-benzenesulfonyl)-amino]-methyl}-2-chloro-phenyl)-difluoromethyl]-phosphonic acid], the IC50 lay within 250 to 499 nM.

On to `COC(=O)c1ccccc1S(=O)(=O)N(Cc1ccc(C(F)(F)P(=O)(O)O)cc1)Cc1ccc(C(F)(F)P(=O)(O)O)cc1` [Compound 92, 2-{Bis-[4-(difluoro-phosphono-methyl)-benzyl]-sulfamoyl}-benzoic acid methyl ester], for which the IC50 is 2500 to 25000 nM.

Take `CS(=O)(=O)c1cccc(-c2ccc(S(=O)(=O)N(Cc3ccc(C#N)cc3)Cc3ccc(C(F)(F)P(=O)(O)O)c(Cl)c3)cc2)c1` [Compound 144, [(2-Chloro-4-{[(4-cyano-benzyl)-(3′-methanesulfonyl-biphenyl-4-sulfonyl)-amino]-methyl}-phenyl)-difluoro-methyl]-phosphonic acid]: the IC50 lay within 250 to 499 nM.

Turning to `COc1ccccc1S(=O)(=O)N(Cc1ccc(N(CC(C)C(=O)O)C(=O)C(=O)O)cc1)Cc1ccc(N(CC(C)C(=O)O)C(=O)C(=O)O)cc1` (stereo not drawn) [Compound 223, 3-[(4-{[{4-[(2-Carboxy-propyl)-oxalyl-amino]-benzyl}-(2-methoxy-benzenesulfonyl)-amino]-methyl}-phenyl)-oxalyl-amino]-2-methyl-propionic acid], the IC50 was more than 25000 nM.

With `O=P(O)(O)C(F)(F)c1ccc(CN(Cc2ccc(C(F)(F)P(=O)(O)O)c(Br)c2)S(=O)(=O)c2ccc3ccccc3c2)cc1` [Compound 42, [(2-Bromo-4-{[[4-(difluoro-phosphono-methyl)-benzyl]-(naphthalene-2-sulfonyl)-amino]-methyl}-phenyl)-difluoro-methyl]-phosphonic acid], the IC50 is less than 99 nM.

As for `O=P(O)(O)C(F)(F)c1ccc(CN(Cc2ccc(C(F)(F)P(=O)(O)O)cc2)S(=O)(=O)c2cccc3ccccc23)cc1` [Compound 67, [(4-{[[4-(Difluoro-phosphono-methyl)-benzyl]-(naphthalene-1-sulfonyl)-amino]-methyl}-phenyl)-difluoro-methyl]-phosphonic acid], the IC50 lay within 2500 to 25000 nM.

`COc1ccccc1S(=O)(=O)N(Cc1ccc(-c2ccc3c(c2)C(=O)OC3)cc1)Cc1ccc(C(F)(F)P(=O)(O)O)c(Cl)c1` [Compound 197, 6-{4-[({[4-(difluorophosphonomethyl)-3-chlorophenyl]methyl}[(2-methoxyphenyl)sulfonyl]amino)methyl]phenyl}-3-hydroisobenzofuran-1-one]: the IC50 was 100 to 249 nM.

With `COC(=O)c1cccc(-c2ccc(CCN(Cc3ccc(C(F)(F)P(=O)(O)O)c(Cl)c3)S(=O)(=O)c3ccccc3OC)cc2)c1` [Compound 182, 4′-{2-[[3-Chloro-4-(difluoro-phosphono-methyl)-benzyl]-(2-methoxy-benzenesulfonyl)-amino]-ethyl}-biphenyl-3-carboxylic acid methyl ester], the IC50 fell in the range of 250 to 499 nM.

Turning to `COc1ccccc1S(=O)(=O)N(Cc1ccc(C(F)(F)P(=O)(O)O)c(Cl)c1)Cc1ccccc1-c1ccncc1` [Compound 180, [(2-Chloro-4-{[(2-methoxy-benzenesulfonyl)-(2-pyridin-4-yl-benzyl)-amino]-methyl}-phenyl)-difluoro-methyl]-phosphonic acid], the IC50 lay in the range of 100 to 249 nM.

For the compound `COc1ccccc1S(=O)(=O)N(Cc1ccc(S(C)(=O)=O)cc1)Cc1ccc(OCC(=O)O)c(C(=O)O)c1` [Compound 134, 2-Carboxymethoxy-5-{[(4-methanesulfonyl-benzyl)-(2-methoxy-benzenesulfonyl)-amino]-methyl}-benzoic acid], the IC50 is more than 25000 nM.
